Reference: patent US20110079775A1, “Solution Processable Organic Semiconductors” (priority 2008, published 2011)

Assay type: physicochemical
Description: The solubility of B4MP-TIPS-An, which was synthesized in Example 1, was measured in various solvents at room temperature. This small molecule semiconductor had moderate solubility in n-butylbenzene (about 1.0 weight percent) and good solubility in dichlorobenzene (greater than 6.0 weight percent) and xylene (about 3.5 weight percent). The weight percent is based on the total solution weight.

With `COc1ccc(-c2ccc3c(C#C[Si](C(C)C)(C(C)C)C(C)C)c4cc(-c5ccc(OC)cc5)ccc4c(C#C[Si](C(C)C)(C(C)C)C(C)C)c3c2)cc1` [Example B4MP-TIPS-An, 2,6-Bis(4-methoxy-phenyl)-9,10-bis-[(triisopropylsilyl)ethynyl]anthracene] the solubility in dichlorobenzene was “greater than 6.0 weight percent”, the solubility in n-butylbenzene was “about 1.0 weight percent” and the solubility in xylene was “about 3.5 weight percent”.
